A short description of data set [1]: Refractive index. It is filed as physicochemical. Conditions: selected SFA's, neat.
Data set [2] deals with rabbit eyes (cornea).
Method: The physiological tolerability of this solution was evaluated in an ex-vivo eye irritation test (EVEIT) using rabbit eyes taken from freshly sacrificed animals. The eyes were fastened in chambers coupled micropump systems which continuously supplied the eyes with cultivation medium (Minimal Essential Medium, MEM T031-OS) without fetal calf serum. The vitality of the eyes was monitored by regularly measuring the concentration of lactate and glucose in the chamber eluate. The corneal surface of the eyes was damaged by abrasion, using a dental ceramic abrasive (638XF, Meisinger). For each eye, four lesions of 3.0 to 4.5 mm^2 were prepared.
To evaluate the effect of F4H5 and F4H5 with 1 wt.-% ethanol on the cornea, an amount of approx. 0.25 to 0.50 μl of the respective test substance was dropped onto the centre of a cornea once every hour over a period of 12 hours, followed by a 12 hour resting period in which the cornea was submersed in culture medium to simulate a closed lid during a night phase. In addition, an aqueous solution of hyaluronic acid (0.1 wt.-%) was used as reference (hyaluronic acid is know to enhance the restoration of the corneal surface after damage), culture medium was used as control, and aqueous benzalkonium chloride solution (0.01 wt.-%) was used as negative control. Each test was performed over a period of 3 days. The effects were observed by optical coherence tomography (OCT), by digitally determining the dimensions of the lesions after staining with fluorescein, and finally by a histological evaluation of the corneal epithelium and endothelium at the end of each experiment.
Each of the two vehicles was tested in two separate runs.

Some results are limits rather than exact numbers.

For the molecule `CCCCC(F)(F)C(F)(F)C(F)(F)C(F)(F)F` [Example F4H4], the Refractive index in data set [1] is recorded as 1,308. The same measure, in the same setting: under `CCCCCCC(F)(F)C(F)(F)C(F)(F)C(F)(F)F` [Example F4H6] stands 1,334. Same read-out and setting: the same measure for `CCCCCCCC(F)(F)C(F)(F)C(F)(F)C(F)(F)F` [Example F4H7]: 1,3357. Still for that read-out and setting: the same measure for `CCCCCCCCC(F)(F)C(F)(F)C(F)(F)C(F)(F)F` [Example F4H8]: 1,348; for `CCC(F)(F)C(F)(F)C(F)(F)C(F)(F)C(F)(F)C(F)(F)F` [Example F6H2]: 1,295. For `CCCCC(F)(F)C(F)(F)C(F)(F)C(F)(F)C(F)(F)C(F)(F)F` [Example F6H4], the Refractive index in data set [1] was 1,306. Still for that read-out and setting: the same measure for `CCCCCCC(F)(F)C(F)(F)C(F)(F)C(F)(F)C(F)(F)C(F)(F)F` [Example F6H6]: 1,3224. Same read-out and setting: the same measure for `CCCCCCCC(F)(F)C(F)(F)C(F)(F)C(F)(F)C(F)(F)C(F)(F)F` [Example F6H7]: 1,3366; for `CCCCCCCCCC(F)(F)C(F)(F)C(F)(F)C(F)(F)C(F)(F)C(F)(F)F` [Example F6H9]: 1,3494.

With “benzalkonium chloride [BAC, reference compound]”, in data set [2], the “Final size of corneal lesions” value was above 60 mm^2; the “Initial size of corneal lesions” value amounted to 16.05 mm^2; the “healing of corneal lesions” value is given as “rapid growth of the lesions”; the “morphological and histological evaluation of cornea” value is reported as “complete disintegration of the corneal epithelium”.

Values taken from US11324757B2, “Pharmaceutical composition for treatment of increased intraocular pressure” (NOVALIQ GMBH, priority 2010, dated 2022).
